Data on three compounds can be found in patent US8852656B2, “Sleep improvement composition” (Taiyokagaku Co., Ltd., priority 2004, dated 2014).

The test system of one data set is rat. The note with it: administered to a rat; cited from earlier work.
The conditions of data set [1]: reported, Patent Document 1; cited from earlier work.
A further data set relates to mice. Type of data set: in vivo. The note with it: oral administration of 5 g/kg. An excerpt: In particular, theanine is known as a “umami” component of tea, is used as a food additive for providing flavor, and the Food Sanitation Law places no restrictions in addition amount.

`CC/C=C\C/C=C\C/C=C\C/C=C\C/C=C\C/C=C\CCC(=O)O[C@H](COC(=O)CCCCCCC/C=C\CCCCCCCC)COP(=O)([O-])OCC[N+](C)(C)C` [1-oleoyl-2-DHA-sn-3-phosphocholine]: the Effect on sleep result in the data set on rat is “the total sleeping time within 24 hours, the REM sleeping time, and the REM sleeping time with respect to the total sleeping time are increased”.

On to `C[C@@H]1CC[C@H]2C(C)(C)[C@H]3C[C@@]12CC[C@@]3(C)O` [cedrol], for which the Effect on sleep entry in data set [1] was “elongate the total sleeping time, shorten the sleep latency time, and increase the sleep efficiency”. On to `CCNC(=O)CC[C@H](N)C(=O)O` [theanine], for which, in the data set on mice, the “Death in acute toxicity test” value is “no cases of death”.
